This assay concerns the target PIK3CA (human) (UniProt P42336). Description: Inhibition of PIK3CA Kinase Activity.

Chain of PIK3CA (human) (P42336 whole entry, looked up): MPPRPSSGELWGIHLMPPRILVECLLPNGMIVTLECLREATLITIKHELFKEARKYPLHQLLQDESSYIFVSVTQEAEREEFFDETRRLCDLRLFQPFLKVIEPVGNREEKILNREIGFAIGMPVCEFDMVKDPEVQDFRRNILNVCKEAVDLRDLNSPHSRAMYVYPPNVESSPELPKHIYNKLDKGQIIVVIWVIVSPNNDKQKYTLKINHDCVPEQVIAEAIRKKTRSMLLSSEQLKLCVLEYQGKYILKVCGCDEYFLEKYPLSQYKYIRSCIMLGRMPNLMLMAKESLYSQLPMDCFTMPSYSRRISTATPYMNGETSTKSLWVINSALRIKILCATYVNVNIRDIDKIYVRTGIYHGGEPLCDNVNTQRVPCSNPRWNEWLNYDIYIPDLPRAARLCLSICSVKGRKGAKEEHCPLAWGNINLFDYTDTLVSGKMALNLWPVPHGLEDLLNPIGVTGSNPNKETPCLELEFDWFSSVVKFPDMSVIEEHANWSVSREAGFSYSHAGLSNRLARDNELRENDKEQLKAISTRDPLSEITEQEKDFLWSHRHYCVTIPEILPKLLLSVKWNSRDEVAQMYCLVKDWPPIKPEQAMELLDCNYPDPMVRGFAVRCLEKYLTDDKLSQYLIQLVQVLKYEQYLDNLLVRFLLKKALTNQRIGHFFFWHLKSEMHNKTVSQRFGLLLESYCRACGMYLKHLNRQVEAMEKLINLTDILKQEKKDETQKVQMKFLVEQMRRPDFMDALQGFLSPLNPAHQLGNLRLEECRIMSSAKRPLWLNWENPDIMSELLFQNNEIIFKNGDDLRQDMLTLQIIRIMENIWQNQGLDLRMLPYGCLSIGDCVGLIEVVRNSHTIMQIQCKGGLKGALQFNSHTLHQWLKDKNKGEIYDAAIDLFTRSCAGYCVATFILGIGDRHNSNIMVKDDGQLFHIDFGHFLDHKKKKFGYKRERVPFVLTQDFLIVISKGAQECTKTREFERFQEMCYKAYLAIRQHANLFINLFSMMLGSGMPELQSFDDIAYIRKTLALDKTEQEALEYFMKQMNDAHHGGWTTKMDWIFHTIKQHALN

One may read the IC50 as the point on the concentration scale where inhibition reaches its midpoint. Read a low IC50 as greater potency. `Oc1cccc(-c2nc(N3CCOCC3)nc3c2ncn3Cc2c(F)cccc2F)c1`: the IC50 was below 1 µM.
Under `Oc1cccc(-c2nc(N3CCOCC3)nc3[nH]c(Br)nc23)c1` stands below 1 µM.
The value for `CCC(C)n1c(C)nc2c(-c3cccc(O)c3)nc(N3CCOCC3)nc21` (configuration not stated) was below 1 µM; that for `CC(C1CC1)n1cnc2c(-c3cccc(O)c3)nc(N3CCOCC3)nc21` (configuration not stated) was below 1 µM; that for `CCC(C)n1cnc2c(-c3cnc(N)nc3C)nc(N3CCOCC3)nc21` (configuration not stated) was below 1 µM.
Under `CC(=O)Nc1ccc(Cn2cnc3c(-c4cccc(O)c4)nc(N4CCOCC4)nc32)cc1` stands below 1 µM; under `CC1CCC(n2cnc3c(-c4cccc(O)c4)nc(N4CCOCC4)nc32)CC1` (configuration not stated), below 1 µM.
In turn, `Oc1cccc(-c2nc(N3CCOCC3)nc3c2ncn3CC2CC2)c1` registered an IC50 below 1 µM.
The value for `Cc1nc(N)ncc1-c1nc(N2CCOCC2)nc2c1ncn2C(C)C1CC1` (configuration not stated) was below 1 µM; that for `CC(C)(C)CC(=O)N1CCC(n2cnc3c(-c4cccc5[nH]ccc45)nc(N4CCOCC4)nc32)CC1` was below 1 µM; that for `CCCCN1CCC(n2cnc3c(-c4cccc(O)c4)nc(N4CCOCC4)nc32)CC1` was below 1 µM.
Under `Nc1ncc(-c2nc(N3CCOCC3)nc3c2ncn3C2CCOC2)cn1` (configuration not stated) stands below 1 µM.
The value for `CC(C)C(C)n1cnc2c(-c3ccc(N)nc3)nc(N3CCOCC3)nc21` (configuration not stated) was below 1 µM; that for `CC1CCC(n2cnc3c(-c4cnc(N)nc4)nc(N4CCOCC4)nc32)C1` (configuration not stated) was below 1 µM; that for `c1cc(-c2nc(N3CCOCC3)nc3c2ncn3C2CCOC2)c2cc[nH]c2c1` (configuration not stated) was below 1 µM.
`CCSc1nc2c(-c3cccc(O)c3)nc(N3CCOCC3)nc2n1C(C)CC` (configuration not stated) came in with an IC50 below 1 µM.
The value for `CS(=O)(=O)N1CCN(C(=O)Cn2cnc3c(-c4cccc(O)c4)nc(N4CCOCC4)nc32)CC1` was below 1 µM.
The value for `Oc1cccc(-c2nc(N3CCOCC3)nc3c2ncn3C2CCCC2)c1` was below 1 µM; that for `O=C(Cn1cnc2c(-c3cccc(O)c3)nc(N3CCOCC3)nc21)N1CCOCC1` was below 1 µM; that for `CS(=O)(=O)N1CCC(n2cnc3c(-c4cccc5[nH]ccc45)nc(N4CCOCC4)nc32)CC1` was below 1 µM.
The value for `CC(C1CC1)n1cnc2c(-c3cnc(N)nc3)nc(N3CCOCC3)nc21` (configuration not stated) was below 1 µM.
Compound `CC(C)C(C)n1cnc2c(-c3cccc4[nH]ccc34)nc(N3CCOCC3)nc21` (configuration not stated) yielded an IC50 below 1 µM.
The value for `Cc1cccc(-n2cnc3c(-c4cccc(O)c4)nc(N4CCOCC4)nc32)c1` was below 1 µM; that for `CCCCNc1nc2c(-c3cccc(O)c3)nc(N3CCOCC3)nc2n1C(C)CC` (configuration not stated) was below 1 µM; that for `CC(C)(C)OC(=O)N1CCC(n2cnc3c(-c4cccc(O)c4)nc(N4CCOCC4)nc32)CC1` was below 1 µM.
Under `CC(c1ccccc1)n1cnc2c(-c3cnc(N)nc3)nc(N3CCOCC3)nc21` (configuration not stated) stands below 1 µM.
The value for `Cc1nc(N)ncc1-c1nc(N2CCOCC2)nc2c1ncn2C(C)c1ccccc1` (configuration not stated) was below 1 µM.
For the compound `Nc1ncc(-c2nc(N3CCOCC3)nc3[nH]cnc23)cn1`, the IC50 was below 1 µM.
The value for `O=C(Cc1cccnc1)N1CCC(n2cnc3c(-c4cccc5[nH]ccc45)nc(N4CCOCC4)nc32)CC1` was below 1 µM; that for `CN1CCN(C(=O)Cn2cnc3c(-c4cccc(O)c4)nc(N4CCOCC4)nc32)CC1` was below 1 µM; that for `CC(C)Cn1cnc2c(-c3cccc(O)c3)nc(N3CCOCC3)nc21` was below 1 µM.
Under `C#CCn1cnc2c(-c3cccc(O)c3)nc(N3CCOCC3)nc21` stands below 1 µM; under `CCC(C#N)n1cnc2c(-c3cnc(N)nc3)nc(N3CCOCC3)nc21` (configuration not stated), below 1 µM.
As for `CCC(C)n1c(Cl)nc2c(-c3cccc(O)c3)nc(N3CCOCC3)nc21` (configuration not stated), the IC50 was below 1 µM.
The value for `COCCn1cnc2c(-c3cccc4[nH]ccc34)nc(N3CCOCC3)nc21` was below 1 µM.
Under `CCC(C)n1cnc2c(-c3cccc4[nH]ccc34)nc(N3CCOCC3)nc21` (configuration not stated) stands below 1 µM.
Under `COCC(C)n1cnc2c(-c3cnc(N)nc3OC)nc(N3CCOCC3)nc21` (configuration not stated) stands below 1 µM; under `Nc1ncc(-c2nc(N3CCOCC3)nc3c2ncn3-c2ccccc2)cn1`, below 1 µM; under `CC(=O)Nc1ccc(Cn2cnc3c(-c4cccc(OC(C)=O)c4)nc(N4CCOCC4)nc32)cc1`, below 1 µM.
Consider `O=C(Cn1cnc2c(-c3cccc(O)c3)nc(N3CCOCC3)nc21)N1CCCC1`, for which the IC50 was below 1 µM.
The value for `c1cc(-c2nc(N3CCOCC3)nc3c2ncn3CCC2OCCCO2)c2cc[nH]c2c1` was below 1 µM; that for `Oc1cccc(-c2nc(N3CCOCC3)nc3[nH]c(-c4cccs4)nc23)c1` was below 1 µM; that for `COCC(C)n1cnc2c(-c3ccc(N)nc3)nc(N3CCOCC3)nc21` (configuration not stated) was below 1 µM.
The value for `COc1cccc(Cn2cnc3c(-c4cccc(O)c4)nc(N4CCOCC4)nc32)c1` was below 1 µM.
Under `CC(c1ccccc1)n1cnc2c(-c3cccc(O)c3)nc(N3CCOCC3)nc21` (configuration not stated) stands below 1 µM.
In turn, `CCC(CC)n1cnc2c(-c3ccc(N)nc3)nc(N3CCOCC3)nc21` registered an IC50 below 1 µM.
Under `CCNc1nc2c(-c3cccc(O)c3)nc(N3CCOCC3)nc2n1C(C)CC` (configuration not stated) stands below 1 µM.
In turn, `COc1nc(N)ncc1-c1nc(N2CCOCC2)nc2c1ncn2C(C)C1CC1` (configuration not stated) gave an IC50 below 1 µM.
The value for `CCC(C)n1c(SC)nc2c(-c3cccc(O)c3)nc(N3CCOCC3)nc21` (configuration not stated) was below 1 µM; that for `COCC(C)n1cnc2c(-c3cnc(N)nc3C)nc(N3CCOCC3)nc21` (configuration not stated) was below 1 µM.
The value for `N#CCn1cnc2c(-c3cccc(O)c3)nc(N3CCOCC3)nc21` was below 1 µM; that for `COCC(C)n1cnc2c(-c3cccc(O)c3)nc(N3CCOCC3)nc21` (configuration not stated) was below 1 µM.
As to `O=[N+]([O-])c1cccc(Cn2cnc3c(-c4cccc(O)c4)nc(N4CCOCC4)nc32)c1`, the IC50 is below 1 µM.
For the compound `CC(=O)Nc1cccc(Cn2cnc3c(-c4cccc(O)c4)nc(N4CCOCC4)nc32)c1`, the IC50 is below 1 µM.
Under `CCc1nc2c(-c3cccc(O)c3)nc(N3CCOCC3)nc2n1C(C)CC` (configuration not stated) stands below 1 µM; under `c1cc(-c2nc(N3CCOCC3)nc3c2ncn3CC2CC2)c2cc[nH]c2c1`, below 1 µM.
`Nc1cccc(Cn2cnc3c(-c4cccc(O)c4)nc(N4CCOCC4)nc32)c1`: the IC50 is below 1 µM.
Under `N#CCn1cnc2c(-c3cccc4[nH]ccc34)nc(N3CCOCC3)nc21` stands below 1 µM; under `Oc1cccc(-c2nc(N3CCOCC3)nc3c2ncn3CCOc2ccccc2)c1`, below 1 µM.
Under `O=C(Nc1ccc(Cl)cc1)N1CCC(n2cnc3c(-c4cccc5[nH]ccc45)nc(N4CCOCC4)nc32)CC1` stands below 1 µM; under `COCC(C)n1cnc2c(-c3cnc(N)nc3)nc(N3CCOCC3)nc21` (configuration not stated), below 1 µM.
Under `Nc1ncc(-c2nc(N3CCOCC3)nc3c2ncn3Cc2c(F)cccc2F)cn1` stands below 1 µM.
`COc1ccc(Cn2cnc3c(-c4cccc(O)c4)nc(N4CCOCC4)nc32)cc1` registered an IC50 below 1 µM.
Turning to `Nc1ccc(-c2nc(N3CCOCC3)nc3c2ncn3C2CCCC2)cn1`, the IC50 is below 1 µM.
The value for `COc1cc(Cn2cnc3c(-c4cccc(O)c4)nc(N4CCOCC4)nc32)cc(OC)c1` was below 1 µM; that for `Nc1ncc(-c2nc(N3CCOCC3)nc3c2ncn3C2CCN(C(=O)c3ccccc3)C2)cn1` (configuration not stated) was below 1 µM; that for `Cc1cccc(-n2cnc3c(-c4cnc(N)nc4)nc(N4CCOCC4)nc32)c1` was below 1 µM.
On to `c1cc(-c2nc(N3CCOCC3)nc3c2ncn3C2CCNCC2)c2cc[nH]c2c1`, for which the IC50 is below 1 µM.
Under `CC(C)n1cnc2c(-c3cccc4[nH]ccc34)nc(N3CCOCC3)nc21` stands below 1 µM; under `O=C(Cn1cnc2c(-c3cccc(O)c3)nc(N3CCOCC3)nc21)NC1CC1`, below 1 µM; under `N#Cc1cccc(Cn2cnc3c(-c4cccc(O)c4)nc(N4CCOCC4)nc32)c1`, below 1 µM.
Under `CC(C)Cn1cnc2c(-c3cccc4[nH]ccc34)nc(N3CCOCC3)nc21` stands below 1 µM; under `Cc1ccc(C(=O)N2CCC(n3cnc4c(-c5cccc6[nH]ccc56)nc(N5CCOCC5)nc43)CC2)s1`, below 1 µM.
Under `O=C(CCN1CCCCC1)N1CCC(n2cnc3c(-c4cccc5[nH]ccc45)nc(N4CCOCC4)nc32)CC1` stands below 1 µM; under `Oc1cccc(-c2nc(N3CCOCC3)nc3c2ncn3CCN2CCCC2)c1`, below 1 µM; under `Cc1ccc(C(=O)N2CCC(n3cnc4c(-c5cnc(N)nc5)nc(N5CCOCC5)nc43)C2)s1` (configuration not stated), below 1 µM.
The compound `Oc1cccc(-c2nc(N3CCOCC3)nc3c2ncn3Cc2ccccc2)c1` registered an IC50 below 1 µM.
Turning to `OCc1cccc(-c2nc(N3CCOCC3)nc3c2ncn3Cc2ccccc2)c1`, the IC50 is below 1 µM.
Under `CCC(C)n1c(N(C)C)nc2c(-c3cccc(O)c3)nc(N3CCOCC3)nc21` (configuration not stated) stands below 1 µM.
Under `CCC(C)n1c(NCCOC)nc2c(-c3cccc(O)c3)nc(N3CCOCC3)nc21` (configuration not stated) stands below 1 µM.
Under `O=C(Cn1cnc2c(-c3cccc(O)c3)nc(N3CCOCC3)nc21)Nc1ccccc1` stands below 1 µM; under `Nc1ncc(-c2nc(N3CCOCC3)nc3c2ncn3C2Cc3ccccc3C2)cn1`, below 1 µM; under `CCC(C)n1cnc2c(-c3cnc(NC)nc3)nc(N3CCOCC3)nc21` (configuration not stated), below 1 µM.
`COC(=O)c1ccc(Cn2cnc3c(-c4cccc(O)c4)nc(N4CCOCC4)nc32)cc1` came in with an IC50 below 1 µM.
Consider `Oc1cccc(-c2nc(N3CCOCC3)nc3c2ncn3Cc2cccc(F)c2)c1`, for which the IC50 was below 1 µM.
Under `c1ccc(Cn2cnc3c(-c4cncnc4)nc(N4CCOCC4)nc32)cc1` stands below 1 µM.
The value for `CCC(C)n1cnc2c(-c3cnc(N)nc3OC)nc(N3CCOCC3)nc21` (configuration not stated) was below 1 µM.
The value for `CC(C)C(C)n1cnc2c(-c3cnc(N)nc3)nc(N3CCOCC3)nc21` (configuration not stated) was below 1 µM.
`c1cc(-c2nc(N3CCOCC3)nc3c2ncn3CC2CCCCC2)c2cc[nH]c2c1` yielded an IC50 below 1 µM.
The value for `CCCC(=O)N1CCC(n2cnc3c(-c4cccc5[nH]ccc45)nc(N4CCOCC4)nc32)CC1` was below 1 µM; that for `COCCn1cnc2c(-c3cccc(O)c3)nc(N3CCOCC3)nc21` was below 1 µM; that for `CC(C)(C)Cn1cnc2c(-c3cnc(N)nc3)nc(N3CCOCC3)nc21` was below 1 µM.

The values are drawn from the Kinase Knowledgebase extract (Sharma et al. 2016).
